{"source": "patent US20120046363A1", "about": "“DOCOSAHEXAENOIC ACID FOR THE TREATMENT OF HEART FAILURE” (University of Maryland, Baltimore, priority 2009, published 2012)", "key": {"[1]": {"settings": "similar patient population to GISSI-HF; cited from earlier work"}, "[2]": {"assay": "Rat abdominal aortic constriction (banding) pressure overload model of HF", "type": "in vivo, male Wistar rats", "settings": "rats with aortic banding; ALA from flaxseed oil", "from_the_text": "A dose-response study was completed with EPA+DHA from fish oil using the rat abdominal aortic constriction pressure overload model of HF. In this model a permanent band is tied around the supra-renal abdominal aorta of male Wistar rats (˜200 g) by placing a blunt needle (20G) along the aorta and tying a 3-0 silk suture around both the aorta and the needle. The needle is removed, leaving the diameter of the aortic lumen determined by the diameter of the needle. The increase in aortic pressure results in progressive LV hypertrophy, mitochondrial dysfunction and decreased activity of mitochondrial enzymes, and LV dilation and contractile dysfunction and thus HF^2, 207-213.\nRats were subjected to abdominal aortic banding and assigned them to 12 wks of treatment with either a standard chow or chow supplemented with EPA+DHA from fish oil at either 0.7, 2.3 or 7% of the total energy intake, with an EPA/DHA ration at a 30/70 mix, respectively. These doses correspond to estimated human doses of 1.6, 5.1 and 15.6 g/day (calculated assuming an energy intake of 2000 kcals/day in humans, and 9 kcals/g of EPA+DHA), thus we spanned both sides of the FDA approved human dose of 3.4 g/day. […] There were no differences in body mass or heart rate among groups. LV mass was 37% greater in the banded rats compared to sham on the standard diet. […]"}, "[3]": {"settings": "mammalian cells; cited from earlier work"}}, "data": [{"smiles": "CC(C)c1nc(N(C)S(C)(=O)=O)nc(-c2ccc(F)cc2)c1/C=C/[C@@H](O)C[C@@H](O)CC(=O)O", "note": "[rosuvastatin]", "values": [{"measurement": "beneficial effect in HF patients", "setting": "[1]", "value": "no beneficial effect"}]}, {"smiles": "CC/C=C\\C/C=C\\C/C=C\\CCCCCCCC(=O)O", "note": "[ALA, α-linolenic acid]", "values": [{"measurement": "cardiomyocyte apoptosis with supplementation", "setting": "[2]", "value": "less apoptosis"}, {"measurement": "conversion of ALA to EPA", "setting": "[3]", "value": "~10", "unit": "%"}]}]}
